Results published in PubChem BioAssay AID2060504 (Molecular Pharmacology Branch, DTP, NCI, 2025).
pIC50: −log10 of the molar value.

Test system: 636577-100-R-J1-PDC complex spheroid viability
Assay: Anticancer human tumor 636577-100-R-J1-PDC patient-derived endometrial adenocarcinoma cell line growth inhibition [GQUAD]
Conditions: for pIC50: curve of first compound; for viability, T/C: stronger effect = lower value
Outline: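 Viability of tumor cells grown as complex spheroids with endothelial and stromal cells, exposed to drug combinations. Top concentration at or near clinical Cmax (else 10 microM), diluted in half-log increments.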

[1] = second compound 0.0316 µM, first compound 0.0316 µM
[2] = second compound 0.0316 µM, first compound 0.1 µM
[3] = second compound 0.0316 µM, first compound 0.316 µM
[4] = second compound 0.0316 µM, first compound 1 µM
[5] = second compound 0.0316 µM, first compound 3.16 µM
[6] = second compound 0.0316 µM, first compound 10 µM
[7] = second compound 0.1 µM, first compound 0.0316 µM
[8] = second compound 0.1 µM, first compound 0.1 µM
[9] = second compound 0.1 µM, first compound 0.316 µM
[10] = second compound 0.1 µM, first compound 1 µM
[11] = second compound 0.1 µM, first compound 3.16 µM
[12] = second compound 0.1 µM, first compound 10 µM
[13] = second compound 0.316 µM, first compound 0.0316 µM
[14] = second compound 0.316 µM, first compound 0.1 µM
[15] = second compound 0.316 µM, first compound 0.316 µM
[16] = second compound 0.316 µM, first compound 1 µM
[17] = second compound 0.316 µM, first compound 3.16 µM
[18] = second compound 0.316 µM, first compound 10 µM
[19] = second compound 1 µM, first compound 0.0316 µM
[20] = second compound 1 µM, first compound 0.1 µM
[21] = second compound 1 µM, first compound 0.316 µM
[22] = second compound 1 µM, first compound 1 µM
[23] = second compound 1 µM, first compound 3.16 µM
[24] = second compound 1 µM, first compound 10 µM
[25] = second compound 3.16 µM, first compound 0.0316 µM
[26] = second compound 3.16 µM, first compound 0.1 µM
[27] = second compound 3.16 µM, first compound 0.316 µM
[28] = second compound 3.16 µM, first compound 1 µM
[29] = second compound 3.16 µM, first compound 3.16 µM
[30] = second compound 3.16 µM, first compound 10 µM
[31] = second compound 10 µM, first compound 0.0316 µM
[32] = second compound 10 µM, first compound 0.1 µM
[33] = second compound 10 µM, first compound 0.316 µM
[34] = second compound 10 µM, first compound 1 µM
[35] = second compound 10 µM, first compound 3.16 µM
[36] = second compound 10 µM, first compound 10 µM
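Further: viability read after seven days of drug exposure.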
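Wherever viability, T/C is given: luminescence signal used as a proxy for viable cells; 100% = DMSO vehicle control wells.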

O=c1[nH]cc(F)c(=O)[nH]1 + Cc1cnc(CNC(=O)c2c(=O)c3ccc(N4CCCN(C)CC4)nc3n3c2sc2ccccc23)cn1
pIC50 (second compound 0.0316 µM): > 7.50
pIC50 (second compound 0.1 µM): > 7.50
pIC50 (second compound 0.316 µM): > 7.50
pIC50 (second compound 1 µM): > 7.50
pIC50 (second compound 3.16 µM): > 7.50
pIC50 (second compound 10 µM): > 7.50
viability, T/C [1]: 47.8%
viability, T/C [2]: 45.1%
viability, T/C [3]: 49.7%
viability, T/C [4]: 39.9%
viability, T/C [5]: 36.7%
viability, T/C [6]: 21.3%
viability, T/C [7]: 28.9%
viability, T/C [8]: 26.9%
viability, T/C [9]: 27.6%
viability, T/C [10]: 25.9%
viability, T/C [11]: 25.5%
viability, T/C [12]: 18.4%
viability, T/C [13]: 24.2%
viability, T/C [14]: 23.3%
viability, T/C [15]: 17.6%
viability, T/C [16]: 21.9%
viability, T/C [17]: 22.2%
viability, T/C [18]: 16.6%
viability, T/C [19]: 21.3%
viability, T/C [20]: 21.1%
viability, T/C [21]: 19.7%
viability, T/C [22]: 23%
viability, T/C [23]: 21.1%
viability, T/C [24]: 20.1%
viability, T/C [25]: 20%
viability, T/C [26]: 19.5%
viability, T/C [27]: 21.8%
viability, T/C [28]: 24.1%
viability, T/C [29]: 21%
viability, T/C [30]: 22%
viability, T/C [31]: 17.7%
viability, T/C [32]: 17.9%
viability, T/C [33]: 18%
viability, T/C [34]: 18.7%
viability, T/C [35]: 20.4%
viability, T/C [36]: 20.1%

CCCS(=O)(=O)Nc1ccc(F)c(C(=O)c2c[nH]c3ncc(-c4ccc(Cl)cc4)cc23)c1F + Cc1cnc(CNC(=O)c2c(=O)c3ccc(N4CCCN(C)CC4)nc3n3c2sc2ccccc23)cn1
pIC50 (second compound 0.0316 µM): > 7.50
pIC50 (second compound 0.1 µM): > 7.50
pIC50 (second compound 0.316 µM): > 7.50
pIC50 (second compound 1 µM): > 7.50
pIC50 (second compound 3.16 µM): > 7.50
pIC50 (second compound 10 µM): > 7.50
viability, T/C [1]: 41.1%
viability, T/C [2]: 40.1%
viability, T/C [3]: 61.3%
viability, T/C [4]: 33.9%
viability, T/C [5]: 44.3%
viability, T/C [6]: 24.2%
viability, T/C [7]: 32%
viability, T/C [8]: 31%
viability, T/C [9]: 33.2%
viability, T/C [10]: 31%
viability, T/C [11]: 29.8%
viability, T/C [12]: 21.4%
viability, T/C [13]: 24.1%
viability, T/C [14]: 25.8%
viability, T/C [15]: 29.9%
viability, T/C [16]: 27.4%
viability, T/C [17]: 26.9%
viability, T/C [18]: 15.7%
viability, T/C [19]: 17.6%
viability, T/C [20]: 24.2%
viability, T/C [21]: 27.4%
viability, T/C [22]: 26.8%
viability, T/C [23]: 24.9%
viability, T/C [24]: 14.7%
viability, T/C [25]: 17.5%
viability, T/C [26]: 21.9%
viability, T/C [27]: 22%
viability, T/C [28]: 25.1%
viability, T/C [29]: 22.7%
viability, T/C [30]: 15.4%
viability, T/C [31]: 20.2%
viability, T/C [32]: 22.1%
viability, T/C [33]: 18.5%
viability, T/C [34]: 21.1%
viability, T/C [35]: 21.7%
viability, T/C [36]: 6.34%
